Laboratory results as given in ChEMBL document CHEMBL1140019, “Primary amides as selective inhibitors of cathepsin K” (Bioorg Med Chem Lett, 2007).

Assays:
Homo sapiens [1] = organism: Homo sapiens; assay: Selectivity for humanized cathepsin K over human cathepsin S
Homo sapiens [2] = organism: Homo sapiens; assay: Selectivity for humanized cathepsin K over human cathepsin L

| Ratio IC50 (Homo sapiens [1]) | Ratio IC50 (Homo sapiens [2]) | SMILES |
| --- | --- | --- |
| 170 | – | CC(C)C[C@H](N[C@@H](c1ccc(-c2ccc(S(C)(=O)=O)cc2)cc1)C(F)(F)F)C(=O)NCC(N)=O |
| – | 4300 | CSCC[C@H](NC(=O)[C@H](CC(C)C)N[C@@H](c1ccc(-c2ccc(S(C)(=O)=O)cc2)cc1)C(F)(F)F)C(N)=O |
| – | 1700 | CC(C)C[C@H](N[C@@H](c1ccc(-c2ccc(S(C)(=O)=O)cc2)cc1)C(F)(F)F)C(=O)N[C@@H](Cc1ccccc1)C(N)=O |
